Measurements from the supplement of paper PMC10307832.

Key:
Test in all cases: relative viability (nuclei count vs DMSO), 5 days (fraction); higher = more cells survive
CX-5461 + Navitoclax = compound: Cc1cnc(CNC(=O)c2c(=O)c3ccc(N4CCCN(C)CC4)nc3n3c2sc2ccccc23)cn1 [CX-5461] + CC1(C)CCC(c2ccc(Cl)cc2)=C(CN2CCN(c3ccc(C(=O)NS(=O)(=O)c4ccc(N[C@H](CCN5CCOCC5)CSc5ccccc5)c(S(=O)(=O)C(F)(F)F)c4)cc3)CC2)C1 [Navitoclax] (partner 0.5 µM)
Procedure, shortened: (§1)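 Values are medians from duplicate plates. Each reflects relative viability, defined as the nuclei count of treated wells over that of vehicle wells. Lung cancer cell lines in 1536-well plates were pin-tool dosed one day after seeding with one drug alone or with a fixed anchor-drug dose plus five library-drug doses (not always all listed) in √10 steps, then fixed, stained and imaged at 4× after 5 days.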

CX-5461 + Palbociclib = compound: Cc1cnc(CNC(=O)c2c(=O)c3ccc(N4CCCN(C)CC4)nc3n3c2sc2ccccc23)cn1 [CX-5461] + CC(=O)c1c(C)c2cnc(Nc3ccc(N4CCNCC4)cn3)nc2n(C2CCCC2)c1=O [Palbociclib] (partner 0.5 µM)
Procedure, shortened: as §1

CX-5461 + Linsitinib = compound: Cc1cnc(CNC(=O)c2c(=O)c3ccc(N4CCCN(C)CC4)nc3n3c2sc2ccccc23)cn1 [CX-5461] + C[C@]1(O)C[C@@H](c2nc(-c3ccc4ccc(-c5ccccc5)nc4c3)c3c(N)nccn32)C1 [Linsitinib] (partner 1 µM)
Procedure, shortened: as §1

CX-5461 + Trametinib = compound: Cc1cnc(CNC(=O)c2c(=O)c3ccc(N4CCCN(C)CC4)nc3n3c2sc2ccccc23)cn1 [CX-5461] + CC(=O)Nc1cccc(-n2c(=O)n(C3CC3)c(=O)c3c(Nc4ccc(I)cc4F)n(C)c(=O)c(C)c32)c1 [Trametinib] (partner 0.02 µM)
Procedure, shortened: as §1

Cell Line	relative viability (CX-5461 + Navitoclax; first compound 0.01 µM)	relative viability (CX-5461 + Navitoclax; first compound 0.03162 µM)	relative viability (CX-5461 + Navitoclax; first compound 0.1 µM)	relative viability (CX-5461 + Navitoclax; first compound 0.3162 µM)	relative viability (CX-5461 + Navitoclax; first compound 1 µM)	relative viability (CX-5461 + Palbociclib; first compound 0.01 µM)	relative viability (CX-5461 + Palbociclib; first compound 0.03162 µM)	relative viability (CX-5461 + Palbociclib; first compound 0.1 µM)	relative viability (CX-5461 + Palbociclib; first compound 0.3162 µM)	relative viability (CX-5461 + Palbociclib; first compound 1 µM)	relative viability (CX-5461 + Linsitinib; first compound 0.01 µM)	relative viability (CX-5461 + Linsitinib; first compound 0.03162 µM)	relative viability (CX-5461 + Linsitinib; first compound 0.1 µM)	relative viability (CX-5461 + Linsitinib; first compound 0.3162 µM)	relative viability (CX-5461 + Linsitinib; first compound 1 µM)	relative viability (CX-5461 + Trametinib; first compound 0.01 µM)	relative viability (CX-5461 + Trametinib; first compound 0.03162 µM)	relative viability (CX-5461 + Trametinib; first compound 0.1 µM)	relative viability (CX-5461 + Trametinib; first compound 0.3162 µM)	relative viability (CX-5461 + Trametinib; first compound 1 µM)
LU99A	0.764	0.938	0.741	0.676	0.898	0.411	0.434	0.389	0.322	0.416	0.562	0.575	0.494	0.345	0.53	0.596	0.488	0.477	0.389	0.634
LXF-289	0.94	0.985	0.995	0.875	0.957	0.596	0.592	0.629	–	0.592	0.963	1	1.04	0.903	0.949	0.757	0.647	0.751	–	0.677
NCI-H23	0.958	0.859	0.986	0.839	0.726	0.48	0.584	0.499	0.576	0.43	0.612	0.554	0.709	0.529	0.451	0.421	0.372	0.407	0.442	0.285
NCI-H322M	1.34	1.31	1.12	–	1.17	0.471	0.457	0.503	0.429	0.434	0.844	0.911	0.944	–	0.9	0.441	0.542	0.55	0.407	0.508
NCI-H441	0.514	0.821	0.57	0.703	0.583	0.233	0.243	0.205	0.203	0.194	0.567	0.651	0.487	0.288	0.629	0.451	0.552	0.441	0.429	0.24
NCI-H460	1.04	1.02	0.273	1.09	0.0167	0.221	0.0725	0.0509	0.0722	0.0229	1.02	0.713	0.133	0.537	0.0178	0.21	0.142	0.0583	0.0956	0.0222
NCI-H520	1.09	0.891	1.05	1.05	0.793	0.219	0.212	0.25	0.247	0.176	0.877	0.916	0.934	0.889	0.701	0.754	0.642	0.734	0.327	0.352
NCI-H647	1.26	1.27	1.19	0.709	0.7	0.413	0.356	0.353	0.414	0.167	1.15	1.25	1.1	1.25	0.442	0.589	0.331	0.494	0.451	0.218
NCI-H727	0.493	0.365	0.464	0.354	0.31	0.601	0.601	0.717	0.65	0.637	0.351	0.276	0.321	0.342	0.129	0.375	0.389	0.4	0.356	0.379
NCI-H838	1.22	1.24	1.21	1.06	0.897	0.231	0.23	0.224	0.212	0.253	1.1	1.05	1.08	0.847	0.859	0.555	0.555	0.539	0.328	0.482
NCI-H1355	0.882	1.03	0.986	1.01	1	0.424	0.467	0.41	0.417	0.388	0.859	0.845	0.893	0.838	0.787	0.456	0.496	0.462	0.414	0.435
NCI-H1395	1.17	0.993	1.16	0.964	0.63	0.624	0.599	0.586	0.572	0.498	1.06	1.15	1.06	0.612	0.583	1.09	0.821	1.07	0.741	0.71
NCI-H1437	1.09	1.1	–	1.03	0.928	0.278	0.328	0.346	0.308	0.279	1.17	1.11	–	0.991	0.763	0.542	0.568	0.469	0.537	0.391
NCI-H1651	–	0.882	–	0.694	0.0867	0.455	0.517	0.536	0.513	0.526	–	0.755	–	0.714	0.11	0.824	0.791	0.87	0.79	0.778
NCI-H1666	0.967	1	–	0.766	0.397	0.63	0.624	0.678	0.626	0.572	0.787	0.982	–	0.82	0.459	0.895	0.891	0.719	0.821	0.65
NCI-H1734	0.979	0.896	0.887	0.728	0.761	0.325	0.391	0.34	0.317	0.292	1.01	0.97	0.901	0.772	0.868	0.716	0.781	0.788	0.599	0.711
